Earlier results on 1 molecule are cited in US20130292614A1, “F[…] AS […]” (3M INNOVATIVE PROPERTIES COMPANY, priority 2011, published 2013).

For the data set the following is noted: inhalation; 2.5 to 3 hour; cited from earlier work.

As for `FC(F)(F)C1(F)OC1(F)F` (stereo not shown) [C3 perfluorooxirane], the “acute lethal concentration (ALC)” value was 200 ppm.
